Data reported in patent US11066711B2, “Biomarkers for predicting Clostridium difficile infection treatment outcome” (Mayo Foundation for Medical Education and Research, priority 2015, dated 2021).

Tested on: Clostridium difficile infection
Test: Primary CDI treatment outcome in patients with a first CDI episode (clinical cohort)
Assay type: in vivo, human
Settings: 88 patients with first CDI episode; metronidazole versus vancomycin (Table 1)
Excerpt: Patients with a first Clostridium difficile infection (CDI) episode were recruited. Consecutive patient stool samples that led to CDI diagnosis were collected.
Clinical data including demographics, hospitalization, concomitant medications, severity, laboratory parameters, prior and concomitant antibiotic use, initial CDI treatment, treatment response and recurrent CDI were obtained by a review of the electronic medical record.
Treatment failure was defined as non-response to treatment after 5 days of metronidazole treatment or 4 days of vancomycin therapy (Khanna et al., 2012 Am J Gastroenterol 107:89-95; Cohen et al., 2010 Infect Control Hosp Epidemiol 31:431-55; and Surawicz et al., 2013 Am J Gastroenterol 108:478-98). Recurrent CDI was defined as recurrence of diarrhea after complete resolution of symptoms at any time during the treatment or within 56 days of onset with a positive CDI test (Cohen et al., 2010 Infect Control Hosp Epidemiol 31:431-55).
Stool samples were collected from 88 patients (median age 52.7 years, interquartile range 36.9-65.1; 60.2% female) and clinical outcomes were recorded prospectively. The rate of primary non-response following recommended treatment was 12.5%, and was similar between metronidazole and vancomycin (Table 1).

## Cc1ncc([N+](=O)[O-])n1CCO [metronidazole]
  rate of primary non-response, comparison between drugs: similar

## CN[C@H](CC(C)C)C(=O)N[C@H]1C(=O)N[C@@H](CC(N)=O)C(=O)N[C@H]2C(=O)N[C@H]3C(=O)N[C@H](C(=O)N[C@H](C(=O)O)c4cc(O)cc(O)c4-c4cc3ccc4O)[C@H](O)c3ccc(c(Cl)c3)Oc3cc2cc(c3O[C@@H]2O[C@H](CO)[C@@H](O)[C@H](O)[C@H]2O[C@H]2C[C@](C)(N)[C@H](O)[C@H](C)O2)Oc2ccc(cc2Cl)[C@H]1O [vancomycin]
  rate of primary non-response, comparison between drugs: similar
